Assay results taken from US11771765B2, “Light augmented treatment method” (The Procter & Gamble Company, priority 2019, dated 2023).

Assays:
M. furfur [1] = assay: M. furfur growth after 20 min treatment, then 409 nm light or dark (Table 2); type: cell-based, Malassezia furfur
Method: Cells are grown in the medium of choice, generally one requiring respiration. In the case of Malassezia furfur that medium is modified Dixon medium (mDixon) (per one liter: 36 g malt extract (Difco 0186-17), 20 g ox bile (provided by American Laboratories, Inc., of Omaha, Nebraska, as Lot No. 03130792), 10 ml Tween 40 (Aldrich 27435-6), 6 g peptone (Difco 0118-17), 2 ml oleic acid (Baker 2114-01), and 2 ml glycerol (Sigma G-7893)). [Candida and YPG, Saccharomyces and YNB (without amino acids) to which we added 40 μg/ml each of uracil, histidine, and methionine plus 130 μg/ml leucine and 2% ethanol and 0.1% yeast extract.] Conventional medium may also be used for other microbials. Starting cultures are prepared by diluting a fresh overnight culture that is out of log phase 1:100 and incubating with shaking at 31° C. in a 250 mL shake flask (Corning, 431144) with 20 mL medium shaking at 200-250 rpm for about 3 hours to ensure the cells had returned to growth phase. At this time, the test agent is added to the flasks to afford the final concentration for testing. The cells are cultured for 1 hour with the test agent. At this time, the cells typically have an OD at 600 nm in the range of 0.25 to 0.8. Generally, we isolate 2.5 OD*mLs of cells calculated as desired OD*mLs divided by the OD600 of the cells. These media samples are centrifuged (Beckman Coulter Allegra™ 6KR centrifuge) 10 minutes at RT at 3200 rpm to pellet the cells. The supernatant is poured off and the tubes are set upside down on a folded paper towel to drain off the remains of media. Two and one half milliliters of PBS (Gibco, pH 7.4, without magnesium chloride or calcium chloride, 14190-144) is added and the cells resuspended. One mL of cells is transferred to each of two 12-well plates (Falcon, polystyrene, 353043). One plate is stored in the dark and the other is exposed to the light with the plate cover on the plate. […] When the light exposure is completed, the samples are mixed by slowly vortexing or pipetting and 0.65 mL of each sample is transferred to 13 mL of medium for overnight growth at 31° C. with shaking. The following morning, typically 18 hours later, the ODs at 600 nm are determined. Successful materials are those that show at least a 50% reduction in growth after light exposure relative to a dark sample.
M. furfur is incubated for twenty minutes with the indicated treatment. A cell pellet is collected after centrifugation so that most of the anti-fungal materials is expected to have been removed. The cell pellet is suspended in PBS and either treated with light (409 nm, 1100 foot candles) for ten minutes or stored in the dark for ten minutes. Samples are then diluted into mDixon with subsequent growth indicated by OD 600 nm.

M. furfur [2] = assay: Dependence of photosensitivity on wavelength, M. furfur (Table 5); type: cell-based, Malassezia furfur; parameters: overnight growth in mDixon: unit not given here; details: for overnight growth in mDixon: N=1
Method: Dependence of photosensitivity on wavelength. A fresh overnight culture is diluted 100 fold and grown for three hours to an OD of 0.16. M. furfur is treated at the indicated dose and cultured another three hours. Cells are harvested by centrifugation, suspended in PBS, and exposed to an LED array at the indicated wavelength. The illumination is for ten minutes with 1200 foot candles. The cultures are then allowed to grow overnight in mDixon. N=1.

protoporphyrin IX (PPIX) [3] = assay: Protoporphyrin IX levels in treated M. furfur cells by HPLC; type: cell-based; details: increasing concentrations
Text: PPIX absorb light in the 400 nm range, and when light is absorbed, PPIX transitions to an excited triplet state that can react with triplet oxygen to produce singlet oxygen or the excited porphyrin can generate ROS through single electron processes. These reactive species result in a loss of cell viability.
M. furfur cells are exposed to other antifungals that are not considered chelators (i.e. selenium sulfide (SeSx), Sulfur, Climbazole, and Terbinafine). After treatment, cells are then exposed to light, or not exposed to light. Both OD are measured to measure growth and PPIX levels are measured.

protoporphyrin IX (PPIX) [4] = assay: as above; type: cell-based
[5] = 8 ppm 20 min, Light 409 nm, 1100 foot candles, 10 min
[6] = 16 ppm 20 min, Light 409 nm, 1100 foot candles, 10 min
[7] = 24 ppm 20 min, Light 409 nm, 1100 foot candles, 10 min
[8] = 32 ppm 20 min, Light 409 nm, 1100 foot candles, 10 min
[9] = prior treatment, with the addition of light
[10] = LED arrays of 520 (green) and 595 (yellow) light

Cc1cc(CC(C)CC(C)(C)C)n(O)c(=O)c1.NCCO (centres unmarked) [Piroctone Olamine, 1-Hydroxy-4-methyl-6-(2,4,4-trimethylpentyl)-2-pyridone monoethanolamine salt]
growth, OD 600 nm (M. furfur [1]; 8 ppm 20 min, Dark 10 min): 7.82 | growth, OD 600 nm (M. furfur [1]; [5]): 7.35 | growth, OD 600 nm (M. furfur [1]; 16 ppm 20 min, Dark 10 min): 7.90 | growth, OD 600 nm (M. furfur [1]; [6]): 0.07 | growth, OD 600 nm (M. furfur [1]; 24 ppm 20 min, Dark 10 min): 7.07 | growth, OD 600 nm (M. furfur [1]; [7]): 0.03 | growth, OD 600 nm (M. furfur [1]; 32 ppm 20 min, Dark 10 min): 6.76 | growth, OD 600 nm (M. furfur [1]; [8]): 0.02 | growth, OD 600 nm (M. furfur [1]; 48 ppm 20 min, Dark 10 min): 7.21 | growth, OD 600 nm (M. furfur [1]; 48 ppm 20 min, Light 409 nm, 1100 foot candles, 10 min): 0.03 | growth, OD 600 nm (M. furfur [1]; 64 ppm 20 min, Dark 10 min): 7.23 | growth, OD 600 nm (M. furfur [1]; 64 ppm 20 min, Light 409 nm, 1100 foot candles, 10 min): 0.02 | growth inhibition (M. furfur [1]; [9]): considerable growth inhibition | overnight growth in mDixon (M. furfur [2]; 8 ppm 3 h, 409 nm LED array, 10 min, 1200 foot candles): 0.891 | overnight growth in mDixon (M. furfur [2]; 8 ppm 3 h, 520 nm LED array, 10 min, 1200 foot candles): 4.34 | overnight growth in mDixon (M. furfur [2]; 8 ppm 3 h, 595 nm LED array, 10 min, 1200 foot candles): 5.59 | overnight growth in mDixon (M. furfur [2]; 8 ppm 3 h, Dark): 4.36 | overnight growth in mDixon (M. furfur [2]; 12 ppm 3 h, 409 nm LED array, 10 min, 1200 foot candles): 0.068 | overnight growth in mDixon (M. furfur [2]; 12 ppm 3 h, 520 nm LED array, 10 min, 1200 foot candles): 3.76 | overnight growth in mDixon (M. furfur [2]; 12 ppm 3 h, 595 nm LED array, 10 min, 1200 foot candles): 4.22 | overnight growth in mDixon (M. furfur [2]; 12 ppm 3 h, Dark): 2.79 | photosensitivity (M. furfur [2]; LED array of 409 nm light): observed photosensitivity | photosensitivity (M. furfur [2]; [10]): not with LED arrays of 520 (green) and 595 (yellow) light | PPIX levels (protoporphyrin IX (PPIX) [3]): increased levels of PPIX | Total PPIX (protoporphyrin IX (PPIX) [4]; Piroctone Olamine 6 ppm): 2.6 ng | Total PPIX (protoporphyrin IX (PPIX) [4]; Piroctone Olamine 8 ppm): 13.9 ng | Total PPIX (protoporphyrin IX (PPIX) [4]; Piroctone Olamine 16 ppm): 20.7 ng | Total PPIX (protoporphyrin IX (PPIX) [4]; Piroctone Olamine 32 ppm): 16.5 ng

[O-]n1ccccc1=S.[O-]n1ccccc1=S.[Zn+2] [ZPT, zinc salt of 1-hydroxy-2-pyridinethione]
growth, OD 600 nm (M. furfur [1]; 4 ppm 20 min, Dark 10 min): 10.14 | growth, OD 600 nm (M. furfur [1]; 4 ppm 20 min, Light 409 nm, 1100 foot candles, 10 min): 4.86 | growth, OD 600 nm (M. furfur [1]; 8 ppm 20 min, Dark 10 min): 9.02 | growth, OD 600 nm (M. furfur [1]; [5]): 3.16 | growth, OD 600 nm (M. furfur [1]; 16 ppm 20 min, Dark 10 min): 5.72 | growth, OD 600 nm (M. furfur [1]; [6]): 0.24 | growth inhibition (M. furfur [1]; 16 to 32 ppm, without light exposure): some growth inhibition | growth, OD 600 nm (M. furfur [1]; 24 ppm 20 min, Dark 10 min): 5.54 | growth, OD 600 nm (M. furfur [1]; [7]): 2.41 | growth, OD 600 nm (M. furfur [1]; 32 ppm 20 min, Dark 10 min): 2.61 | growth, OD 600 nm (M. furfur [1]; [8]): 1.65 | growth inhibition (M. furfur [1]; [9]): considerable growth inhibition | overnight growth in mDixon (M. furfur [2]; 6 ppm 3 h, 409 nm LED array, 10 min, 1200 foot candles): 0.354 | overnight growth in mDixon (M. furfur [2]; 6 ppm 3 h, 520 nm LED array, 10 min, 1200 foot candles): 3.37 | overnight growth in mDixon (M. furfur [2]; 6 ppm 3 h, 595 nm LED array, 10 min, 1200 foot candles): 3.75 | overnight growth in mDixon (M. furfur [2]; 6 ppm 3 h, Dark): 3.31 | photosensitivity (M. furfur [2]; LED array of 409 nm light): observed photosensitivity | photosensitivity (M. furfur [2]; [10]): not with LED arrays of 520 (green) and 595 (yellow) light | PPIX levels (protoporphyrin IX (PPIX) [3]): increased levels of PPIX | Total PPIX (protoporphyrin IX (PPIX) [4]; ZPT 2.5 ppm): 0.37 ng | Total PPIX (protoporphyrin IX (PPIX) [4]; ZPT 5 ppm): 0.47 ng | Total PPIX (protoporphyrin IX (PPIX) [4]; ZPT 10 ppm): 0.27 ng
